{
  "source": "patent US7795279B2",
  "about": "“Method of inhibiting FLT3 kinase” (Janssen Pharmaceutica NV, priority 2005, dated 2010)",
  "key": {"Baf3 cells": {"tested_on": "Baf3 cells", "assay": "Baf3 cell proliferation (non-specific toxicity control)", "assay_type": "cell-based, murine", "details": "Mus musculus, IL-3 driven", "source_text": "The IL-3 dependent, murine b-cell lymphoma cell line, Baf3, were used as a control to confirm the selectivity of compound inhibition of proliferation for representatives of the present invention by measuring non-specific growth inhibition by the compounds of the present invention (data not shown). To measure proliferation inhibition by compounds of the present invention, the luciferase based CellTiterGlo reagent (Promega), which quantifies total cell number based on total cellular ATP concentration, was used. […] Compound dilutions or 0.1% DMSO (vehicle control) are added to cells and the cells are allowed to grow for 72 hours at standard cell growth conditions (37° C., 5% CO2). […] To measure total cell growth an equal volume of CellTiterGlo reagent was added to each well, according to the manufacturer's instructions, and luminescence was quantified. Total cell growth was quantified as the difference in luminescent counts (relative light units, RLU) of cell number at Day 0 compared to total cell number at Day 3 (72 hours of growth and/or compound treatment). One hundred percent inhibition of growth is defined as an RLU equivalent to the Day 0 reading. Zero percent inhibition was defined as the RLU signal for the DMSO vehicle control at Day 3 of growth. MV4-11 cells express the FLT3 internal tandem duplication mutation, and thus are entirely dependent upon FLT3 activity for growth. […]"}, "MV4-11 tumor xenografts": {"tested_on": "MV4-11 tumor xenografts", "assay": "Nude mouse MV4-11 human tumor xenograft regression model", "assay_type": "in vivo", "details": "for final tumor weight: study termination", "experimental": "Female athymic nude mice (CD-1, nu/nu, 9-10 weeks old) were obtained from Charles River Laboratories (Wilmington, Mass.) and were maintained according to NIH standards. All mice were group housed (5 mice/cage) under clean-room conditions in sterile micro-isolator cages on a 12-hour light/dark cycle in a room maintained at 21-22° C. and 40-50% humidity. Mice were fed irradiated standard rodent diet and water ad libitum. All animals were housed in a Laboratory Animal Medicine facility that is fully accredited by the American Association for Assessment and Accreditation of Laboratory Animal Care (AAALAC). All procedures involving animals were conducted in compliance with the NIH Guide for the Care and Use of Laboratory Animals and all protocols were approved by an […] Animal Care and Use Committee (IACUC). The human leukemic MV4-11 cell line was obtained from the American Type Culture Collection (ATCC Number: CRL-9591) and propagated in RPMI medium containing 10% FBS (fetal bovine serum) and 5 ng/mL GM-CSF (R&D Systems). […] MV4-11 cells express constitutively active phosphorylated FLT3 receptor as a result of this naturally occurring FLT3/ITD mutation. Strong anti-tumor activity against MV4-11 tumor growth in the nude mouse tumor xenograft model is a desirable quality of the invention. […] Female athymic nude mice weighing no less than 20-21 grams were inoculated subcutaneously in the left inguinal region of the thigh with 5×10^6 tumor cells in a delivery volume of 0.2 mL. For regression studies, the tumors were allowed to grow to a pre-determined size prior to initiation of dosing."}, "[1]": {"assay": "Body weight and overt toxicity in the MV4-11 xenograft study", "details": "11-day oral treatment, doses up to 200 mg/kg/day", "experimental": "If tumors in the control mice reached ˜10% of body weight (˜2.0 grams), the study was to be terminated. […] During the study, tumor growth was measured three times-a-week (M, W, F) using electronic Vernier calipers. Tumor volume (mm^3) was calculated using the formula […], where L=length (mm) and W=width (shortest distance in mm) of the tumor. Body weight was measured three times-a-week and a loss of body weight >10% was used as an indication of lack of compound tolerability. Unacceptable toxicity was defined as body weight loss >20% during the study. Mice were closely examined daily at each dose for overt clinical signs of adverse, drug-related side effects.\nMice were weighed three times each week (M, W, F) during the study and were examined daily at the time of dosing for overt clinical signs of any adverse, drug-related side effects."}, "[2]": {"tested_on": "FLT3 phosphorylation in MV4-11 tumors", "assay": "FLT3 phosphorylation in MV4-11 tumors (immunoprecipitation / western blot)", "assay_type": "in vivo, mouse", "details": "tumors harvested 6 hours later", "experimental": "Tumors were harvested 6 hours later and snap frozen for assessment of FLT3 phosphorylation by western blots.\nHarvested tumors were frozen and processed for immunoblot analysis of FLT3 phosphorylation in the following manner: 200 mg of tumor tissue was dounce homogenized in lysis buffer (50 mM Hepes, 150 mM NaCl, 10% Glycerol, 1% Triton-X-100, 10 mM NaF, 1 mM EDTA, 1.5 mM MgCl2, 10 mM NaPyrophosphate) supplemented with phosphatase (Sigma Cat# P2850) and protease inhibitors (Sigma Cat #P8340). Insoluble debris was removed by centrifugation at 1000×g for 5 minutes at 4° C. […] Immunoprecipitated FLT3 from tumor lysates were then washed four times with lysis buffer and separated by SDS-PAGE. […] Blots were then stripped and reprobed with anti-FLT3 antibody for normalization of phosphorylation signals."}, "MV4-11 cells": {"tested_on": "MV4-11 cells", "assay": "Inhibition of MV4-11 cell proliferation (CellTiterGlo)", "assay_type": "cell-based", "details": "Homo sapiens, 72 hours growth, uncertainty ±20%", "experimental": "To assess the cellular potency of compounds of the present invention, FLT3 specific growth inhibition was measured in the leukemic cell line MV4-11 (ATCC Number: CRL-9591). MV4-11 cells are derived from a patient with childhood acute myelomonocytic leukemia with an 11q23 translocation resulting in a MLL gene rearrangement and containing an FLT3-ITD mutation (AML subtype M4)(1,2). MV4-11 cells cannot grow and survive without active FLT3ITD.\nTo measure proliferation inhibition by compounds of the present invention, the luciferase based CellTiterGlo reagent (Promega), which quantifies total cell number based on total cellular ATP concentration, was used. Cells are plated at 10,000 cells per well in 100 ul of in RPMI media containing penn/strep, 10% FBS and 1 ng/ml GM-CSF or 1 ng/ml IL-3 for MV4-11 and Baf3 cells respectively.\nCompound dilutions or 0.1% DMSO (vehicle control) are added to cells and the cells are allowed to grow for 72 hours at standard cell growth conditions (37° C., 5% CO2). For activity measurements in MV4-11 cells grown in 50% plasma, cells were plated at 10,000 cells per well in a 1:1 mixture of growth media and human plasma (final volume of 100 μL). To measure total cell growth an equal volume of CellTiterGlo reagent was added to each well, according to the manufacturer's instructions, and luminescence was quantified. Total cell growth was quantified as the difference in luminescent counts (relative light units, RLU) of cell number at Day 0 compared to total cell number at Day 3 (72 hours of growth and/or compound treatment). One hundred percent inhibition of growth is defined as an RLU equivalent to the Day 0 reading. Zero percent inhibition was defined as the RLU signal for the DMSO vehicle control at Day 3 of growth.\nData points are an average of triplicate samples. […] Inhibition and IC50 data analysis was done with GraphPad Prism using a non-linear regression fit with a multiparamater, sigmoidal dose-response (variable slope) equation."}},
  "data": [
    {"compound": "CN(C)CC(=O)N1CCC(c2ccc(NC(=O)c3nc(C#N)c[nH]3)c(C3=CCCCC3)c2)CC1", "note": "[Example 38, 4-Cyano-1H-imidazole-2-carboxylic acid {2-cyclohex-1-enyl-4-[1-(2-dimethylamino-acetyl)-piperidin-4-yl]-phenyl}-amide]", "values": [
      {"measurement": "inhibition at 3 µM", "setting": "Baf3 cells", "result": "< 50", "unit": "%"},
      {"measurement": "tumor growth delay compared to vehicle-treated control group", "setting": "MV4-11 tumor xenografts; 10 mg/kg b.i.d. oral, 11 days", "result": "no significant growth delay"},
      {"measurement": "final tumor weight", "setting": "MV4-11 tumor xenografts; 10 mg/kg b.i.d. oral", "result": "no significant decrease in final tumor weight"},
      {"measurement": "final tumor weight", "setting": "MV4-11 tumor xenografts; 50 mg/kg b.i.d. oral", "result": "no measurable tumor mass detectable"},
      {"measurement": "effects on body weight", "setting": "[1]", "result": "no significant adverse effects on body weight"},
      {"measurement": "level of FLT3 phosphorylation in MV4-11 tumors versus vehicle", "setting": "[2]; single dose 10 mg/kg po", "result": "partial reduction"},
      {"measurement": "level of FLT3 phosphorylation in MV4-11 tumors versus vehicle", "setting": "[2]; single dose 100 mg/kg po", "result": "biologically significant reduction"},
      {"measurement": "IC50", "setting": "MV4-11 cells", "result": 23.5, "unit": "nM"}
    ]}
  ]
}
